Experimental data from patent publication US20100267752A1, “3-HYDROQUINAZOLIN-4-ONE DERIVATIVES FOR USE AS STEAROYL CoA DESATURASE INHIBITORS” (Gilead Palo Alto, Inc., priority 2008, published 2010).

Biological target: T1, SCD (stearoyl-CoA desaturase) (Rattus norvegicus, UniProt P07308)
T1 construct: The rat liver microsomes were collected according to the procedure described in Ozols (1990) Methods Enzm, 182:225; from tissue; host or cells: liver microsomes of male Sprague Dawley rats, SCD induced by a carbohydrate-rich diet
T1 sequence (P07308 1-358): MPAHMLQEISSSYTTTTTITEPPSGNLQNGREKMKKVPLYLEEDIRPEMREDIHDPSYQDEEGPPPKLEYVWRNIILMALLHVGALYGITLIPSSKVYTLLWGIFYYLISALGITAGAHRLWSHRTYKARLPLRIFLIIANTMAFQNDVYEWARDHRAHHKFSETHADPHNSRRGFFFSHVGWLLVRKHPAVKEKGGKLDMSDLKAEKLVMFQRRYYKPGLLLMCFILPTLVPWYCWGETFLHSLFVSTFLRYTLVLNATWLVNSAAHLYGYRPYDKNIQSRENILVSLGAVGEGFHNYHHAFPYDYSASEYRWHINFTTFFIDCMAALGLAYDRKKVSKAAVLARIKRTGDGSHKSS
Assay: SCD assay with rat liver microsomes, [3H]stearoyl CoA (adapted from Talamo and Bloch)
Type: biochemical
Conditions: rat liver microsomes 0.2 mg/ml final, 30 min preincubation, 45 min reaction at room temperature
Text: The identification of compounds of the invention as SCD inhibitors was readily accomplished using the SCD enzyme and microsomal assay procedure described in Talamo and Bloch (1969) Analytical Biochemistry 29:300-304.
The rat liver microsomes were collected according to the procedure described in Ozols (1990) Methods Enzm, 182:225.
Male Sprague Dawley Rats were placed on regimented fasting protocol for one week to stimulate SCD enzymatic activity. 48-hour periods were alternated between feeding and fasting to induce and down-regulate SCD activity with SCD activity being induced via carbohydrate rich diet prior to liver perfusion and collection.
The rats were anesthetized with Isoflurane inhalation anesthetic, the liver perfused with cold phosphate buffered saline (PBS), weighed, and chilled in cold homogenization buffer (250 mM sucrose, […] Tris, 1 mM EDTA, pH 7.6.
The livers were finely minced and placed in homogenization tube. 40 mL of homogenization buffer was added to the homogenization tube and the liver homogenized and centrifuged in a pre-chilled SLA-600 TC at 800G rotor for 10 min at 4° C.
Following centrifugation, the supernatant was collected and the pellet removed and discarded. The supernatant was centrifuge at 10,000 G for 35 minutes. Following centrifugation, the supernatant was collect and the pellet discarded. The supernatant was then centrifuged in a pre-chilled 45-Ti rotor at 130,000 G (41,000 RPM) for 90 minutes at 4° C.
The supernatant was then aspirated off and the collected microsomal pellet washed in 25 mL of Glycerol PBS (1×PBS 7.4, 20% Glycerol) and resuspended in 4-5 volumes of Glycerol PBS.
The protein concentration of the microsomal preparation was determined by BCA assay (Pierce) and the microsomes were aliquoted and stored at −80° C.
SCD was determined in the desaturase assay buffer. This assay buffer contained 0.1 M Tris buffer, pH 7.2, 2 mM NADH, 4.8 mM ATP, 0.5 mM CoA, 4.8 mM MgCl2, and 0.1% BSA.
The Procedure for the SCD Assay (Adapted from Talamo and Bloch (1969) Analytical Biochemistry 29:300-304)
1 μl of each compound of Formula I was added to an assay plate by a low volume (0.5-10 μL) multichannel pipette. A DMSO control was also prepared. The microsomes were quickly thawed and added to assay buffer so that a concentration of 0.4 mg/ml was achieved (0.2 mg/ml assay final). 50 μl of the microsome suspension in assay buffer was then added into each well in the compound assay plate, the plate was covered, and the microsomes preincubated with the compounds for 30 minutes on the orbital shaker, 50-75 rpm, at room temperature. […]

| IC50 | SMILES |
| --- | --- |
| 2.5 µM | O=C(Nc1ccc2c(=O)[nH]c(Cc3ccc(Cl)c(Cl)c3)nc2c1)OCc1ccccc1 [I., benzyl 2-(3,4-dichlorobenzyl)-4-oxo-3,4-dihydroquinazolin-7-ylcarbamate] |
| 1.2 µM | O=C(Nc1ccc2nc(Cc3ccc(Cl)c(Cl)c3)[nH]c(=O)c2c1)OCc1ccccc1 [II., benzyl 2-(3,4-dichlorobenzyl)-4-oxo-3,4-dihydroquinazolin-6-ylcarbamate] |
| 0.75 µM | CC(=O)OCC(=O)Nc1ccc2nc(Cc3ccc(Cl)c(Cl)c3)[nH]c(=O)c2c1 [III., 2-(2-(3,4-dichlorobenzyl)-4-oxo-3,4-dihydroquinazolin-6-ylamino)-2-oxoethyl acetate] |
| 0.93 µM | O=C(CO)Nc1ccc2nc(Cc3ccc(Cl)c(Cl)c3)[nH]c(=O)c2c1 [IV., N-(2-(3,4-dichlorobenzyl)-4-oxo-3,4-dihydroquinazolin-6-yl)-2-hydroxyacetamide] |
